Experimental data reported in ChEMBL document CHEMBL5385853, “Design, synthesis, and biological evaluation of novel quinoline derivatives as small molecule mutant EGFR inhibitors targeting resistance in NSCLC: In vitro screening and ADME predictions” (Eur J Med Chem, 2023).
The source made the active and inactive calls. The calls are words filed in the database; no cut-off is given here.

Assays:
A549 [1] = assay: Anticancer activity against human A549 cells assessed as reduction in cell viability measured after 72 hrs by MTT assay; assay type: functional, cell-based; settings: A549, 72 h
A549 [2] = assay: Anticancer activity against human A549 cells overexpressing wild type EGFR assessed as reduction in cell viability measured after 72 hrs by MTT assay; assay type: functional, cell-based; settings: A549, 72 h
NCI-H1975 = assay: Anticancer activity against human NCI-H1975 cells harboring EGFR L858R/T790M mutant assessed as reduction in cell viability measured after 72 hrs by MTT assay; assay type: functional, cell-based; settings: NCI-H1975, 72 h
HCC827 = assay: Anticancer activity against human HCC827 cells harboring EGFR E746_A750 del mutant assessed as reduction in cell viability measured after 72 hrs by MTT assay; assay type: functional, cell-based; settings: HCC827, 72 h
NSCLC [3] = assay: Induction of apoptosis in human NSCLC assessed as late apoptotic cells at IC50 measured after 24 to 48 hrs by AnnexinV-FITC/PI staining based flow cytometry (reference value: 1.1%); assay type: functional; settings: time 24-48 hrs
NSCLC [4] = assay: Induction of apoptosis in human NSCLC assessed as early apoptotic cells at IC50 measured after 24 to 48 hrs by AnnexinV-FITC/PI staining based flow cytometry (reference value: 2.1%); assay type: functional; settings: time 24-48 hrs
[5] = tested on: Epidermal growth factor receptor (Homo sapiens), P00533 [UNDEFINED MUTATION]; assay: Inhibition of EGFR E746_A750 del mutant in human HCC827 cells assessed as inhibition of Akt phosphorylation at 0.01 to 1 uM by western blot analysis; assay type: cell-based; settings: dose 0.01-1 µM
[6] = target: Epidermal growth factor receptor (Homo sapiens, UniProt P00533, L858R/T790M); assay: Inhibition of EGFR L858R/T790M mutant (unknown origin) using poly (Glu,Tyr) as substrate incubated for 40 mins in presence of ATP by Kinase-Glo luminescent analysis
[7] = Cytotoxicity against human BEAS-2B cells assessed as reduction in cell viability measured after 72 hrs by MTT assay; assay type: toxicity, cell-based
[8] = target: Epidermal growth factor receptor (Homo sapiens, UniProt P00533); assay: Inhibition of EGFR (unknown origin)
Sequence of Epidermal growth factor receptor (Homo sapiens, UniProt P00533) (P00533 whole entry): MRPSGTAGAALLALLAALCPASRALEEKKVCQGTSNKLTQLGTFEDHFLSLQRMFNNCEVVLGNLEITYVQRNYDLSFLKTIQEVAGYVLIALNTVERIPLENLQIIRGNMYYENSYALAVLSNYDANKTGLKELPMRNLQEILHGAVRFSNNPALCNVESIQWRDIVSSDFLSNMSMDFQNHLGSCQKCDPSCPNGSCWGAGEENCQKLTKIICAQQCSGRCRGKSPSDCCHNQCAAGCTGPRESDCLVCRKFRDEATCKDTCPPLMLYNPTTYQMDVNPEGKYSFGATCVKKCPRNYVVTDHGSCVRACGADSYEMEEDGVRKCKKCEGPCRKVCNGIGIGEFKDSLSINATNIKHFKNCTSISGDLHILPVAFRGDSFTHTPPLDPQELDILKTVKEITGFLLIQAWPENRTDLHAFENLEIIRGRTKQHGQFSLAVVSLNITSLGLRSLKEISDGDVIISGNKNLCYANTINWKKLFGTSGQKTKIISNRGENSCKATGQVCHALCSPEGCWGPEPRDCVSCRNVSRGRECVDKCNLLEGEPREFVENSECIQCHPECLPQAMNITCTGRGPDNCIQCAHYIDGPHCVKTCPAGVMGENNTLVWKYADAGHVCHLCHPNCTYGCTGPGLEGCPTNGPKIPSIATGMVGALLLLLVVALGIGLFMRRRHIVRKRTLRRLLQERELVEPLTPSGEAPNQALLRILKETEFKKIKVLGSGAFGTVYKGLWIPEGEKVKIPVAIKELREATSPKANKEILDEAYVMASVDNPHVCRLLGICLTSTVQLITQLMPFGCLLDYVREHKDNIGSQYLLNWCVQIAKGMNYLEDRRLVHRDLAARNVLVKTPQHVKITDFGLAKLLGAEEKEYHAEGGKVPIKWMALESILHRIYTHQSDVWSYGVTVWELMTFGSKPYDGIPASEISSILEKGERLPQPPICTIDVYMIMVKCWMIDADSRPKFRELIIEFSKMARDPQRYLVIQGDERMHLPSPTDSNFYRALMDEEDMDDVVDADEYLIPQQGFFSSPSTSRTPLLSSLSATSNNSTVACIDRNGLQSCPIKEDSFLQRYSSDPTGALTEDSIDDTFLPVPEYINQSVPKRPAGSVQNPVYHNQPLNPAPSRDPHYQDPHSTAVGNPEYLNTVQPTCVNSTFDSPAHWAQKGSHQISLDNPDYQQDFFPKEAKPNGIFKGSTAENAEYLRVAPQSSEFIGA

Sequence of Epidermal growth factor receptor (Homo sapiens, UniProt P00533, L858R/T790M) (P00533 25-1210 T790M/L858R limits assumed): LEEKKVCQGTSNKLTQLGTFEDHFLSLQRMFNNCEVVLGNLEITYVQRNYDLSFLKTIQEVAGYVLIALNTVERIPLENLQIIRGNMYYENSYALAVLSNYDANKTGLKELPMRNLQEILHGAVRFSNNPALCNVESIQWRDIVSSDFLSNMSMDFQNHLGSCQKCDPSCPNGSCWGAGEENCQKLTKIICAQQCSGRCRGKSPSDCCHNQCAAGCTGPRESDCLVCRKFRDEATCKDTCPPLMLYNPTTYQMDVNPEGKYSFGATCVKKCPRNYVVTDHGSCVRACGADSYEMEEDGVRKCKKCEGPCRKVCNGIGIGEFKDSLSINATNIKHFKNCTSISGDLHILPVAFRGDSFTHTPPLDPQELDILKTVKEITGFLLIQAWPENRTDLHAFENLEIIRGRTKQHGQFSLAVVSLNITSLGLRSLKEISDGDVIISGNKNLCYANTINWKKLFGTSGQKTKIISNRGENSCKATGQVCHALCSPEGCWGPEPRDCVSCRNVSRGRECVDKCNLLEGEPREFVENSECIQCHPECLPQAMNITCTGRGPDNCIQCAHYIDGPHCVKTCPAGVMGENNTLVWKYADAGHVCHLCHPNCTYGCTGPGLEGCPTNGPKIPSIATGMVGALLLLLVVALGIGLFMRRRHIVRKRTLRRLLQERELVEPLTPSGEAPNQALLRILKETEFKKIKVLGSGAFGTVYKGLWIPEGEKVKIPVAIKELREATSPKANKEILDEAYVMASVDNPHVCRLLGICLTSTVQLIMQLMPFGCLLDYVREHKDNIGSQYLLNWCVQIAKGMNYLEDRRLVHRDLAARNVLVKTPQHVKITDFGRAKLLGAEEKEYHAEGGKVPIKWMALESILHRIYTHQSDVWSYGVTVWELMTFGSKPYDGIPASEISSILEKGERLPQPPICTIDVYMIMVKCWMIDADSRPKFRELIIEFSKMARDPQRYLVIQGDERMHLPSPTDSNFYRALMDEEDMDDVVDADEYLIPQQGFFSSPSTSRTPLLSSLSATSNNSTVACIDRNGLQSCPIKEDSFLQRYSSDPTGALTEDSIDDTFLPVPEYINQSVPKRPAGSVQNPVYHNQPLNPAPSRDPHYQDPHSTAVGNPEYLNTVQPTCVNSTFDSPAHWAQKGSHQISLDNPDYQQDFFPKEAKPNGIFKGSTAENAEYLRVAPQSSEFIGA
Sequence of Epidermal growth factor receptor (Homo sapiens), P00533 [UNDEFINED MUTATION] (P00533 whole entry, looked up, stated change not applied): as the sequence (P00533 whole entry) above

| IC50 (A549 [1]) [µM] | IC50 (A549 [2]) [µM] | IC50 (NCI-H1975) [nM] | IC50 (HCC827) [nM] | inhibition [5] | IC50 [6] [nM] | IC50 [8] [nM] | Structure (SMILES) | Activity (NSCLC [3]) [%] | Activity (NSCLC [4]) [%] | IC50 at 72 h [7] [µM] |
| --- | --- | --- | --- | --- | --- | --- | --- | --- | --- | --- |
| 14.6 | 10.3 | 11100 | 890 |  |  |  | CCOC(=O)c1c(-n2ccnc2)nc2ccc(Br)cc2c1N1CCN(c2ccccc2NS(=O)(=O)c2ccc(S(C)(=O)=O)cc2)CC1 |  |  |  |
| 2.99 | 0.99 | 210 | 10 | inactive | 138 |  | CCOC(=O)c1c(-n2ccnc2)nc2ccc(Br)cc2c1N1CCN(c2ccccc2NS(=O)(=O)c2ccc(C(F)(F)F)cc2)CC1 | 4.2 | 26.8 | 85.1 |
| 3.09 | 1.09 | 770 | 99 |  | 159 |  | CCOC(=O)c1c(-n2ccnc2)nc2ccc(Br)cc2c1N1CCN(c2ccccc2NS(=O)(=O)c2ccc(F)c(F)c2)CC1 |  |  | 45.8 |
| 14.2 | 12.2 | 16000 | 2110 |  |  |  | CCOC(=O)c1c(-n2ccnc2)nc2ccc(Br)cc2c1N1CCN(C(=O)OC(C)(C)C)CC1 |  |  |  |
| 16.8 | 11.5 | 13100 | 970 |  |  |  | CCOC(=O)c1c(-n2ccnc2)nc2ccc(Br)cc2c1N1CCN(c2ccccc2N)CC1 |  |  |  |
| 6.98 | 4.3 | 2180 | 110 |  |  |  | CCOC(=O)c1c(-n2ccnc2)nc2ccc(Br)cc2c1N1CCN(c2ccccc2NC(=O)c2cc(F)ccc2I)CC1 |  |  |  |
| 11.5 | 8.22 | 9360 | 880 |  |  |  | CCCc1cc(C(=O)Nc2ccccc2N2CCN(c3c(C(=O)OCC)c(-n4ccnc4)nc4ccc(Br)cc34)CC2)n(C)n1 |  |  |  |
| 11.1 | 7.84 | 7160 | 670 |  |  |  | CCOC(=O)c1c(-n2ccnc2)nc2ccc(Br)cc2c1N1CCN(c2ccccc2NS(=O)(=O)C2CC2)CC1 |  |  |  |
| 9.18 | 5.6 | 2880 | 290 |  |  |  | CCOC(=O)c1c(-n2ccnc2)nc2ccc(Br)cc2c1N1CCN(c2ccccc2NS(=O)(=O)c2ccc(I)cc2)CC1 |  |  |  |
| 10.2 | 6.11 | 4800 | 380 |  |  |  | CCOC(=O)c1c(-n2ccnc2)nc2ccc(Br)cc2c1N1CCN(c2ccccc2NS(=O)(=O)c2ccc(OC)cc2)CC1 |  |  |  |
| 11.2 | 8.73 | 6140 | 520 |  |  |  | CCOC(=O)c1c(-n2ccnc2)nc2ccc(Br)cc2c1N1CCN(c2ccccc2NC(=O)c2cccc(OC)c2OC)CC1 |  |  |  |
| 10.1 | 6.09 | 4430 | 280 |  |  |  | CCOC(=O)c1c(-n2ccnc2)nc2ccc(Br)cc2c1N1CCN(c2ccccc2[N+](=O)[O-])CC1 |  |  |  |
| 9.11 | 5.82 | 4120 | 330 |  |  |  | CCOC(=O)c1c(-n2ccnc2)nc2ccc(Br)cc2c1N1CCN(c2ccccc2NS(=O)(=O)c2ccc(C#N)cc2)CC1 |  |  |  |
| 4.87 | 2.41 | 860 | 50 | inactive | 144 |  | CCOC(=O)c1c(-n2ccnc2)nc2ccc(Br)cc2c1N1CCN(c2ccccc2NS(=O)(=O)c2ccccc2F)CC1 |  |  |  |
|  |  |  |  |  |  | 7.5 | COc1cc2ncc(C#N)c(Nc3cccc(Br)c3)c2cc1OC |  |  |  |
| 9.22 | 5.99 | 4300 | 380 |  |  |  | CCOC(=O)c1c(-n2ccnc2)nc2ccc(Br)cc2c1N1CCN(c2ccccc2NS(=O)(=O)c2cccc(C#N)c2)CC1 |  |  |  |
| 8.32 | 4.88 | 2810 | 170 |  |  |  | CCOC(=O)c1c(-n2ccnc2)nc2ccc(Br)cc2c1N1CCN(c2ccccc2NC(=O)c2ccccc2F)CC1 |  |  |  |
| 8.36 | 5.64 | 2860 | 220 |  |  |  | CCOC(=O)c1c(-n2ccnc2)nc2ccc(Br)cc2c1N1CCN(c2ccccc2NS(=O)(=O)c2ccc(Cl)cc2)CC1 |  |  |  |
| 11 | 7.94 | 110 | 100 |  |  |  | CCOC(=O)c1c(-n2ccnc2)nc2ccc(Br)cc2c1N1CCN(c2ccccc2NC(=O)C2CC(=O)C2)CC1 |  |  |  |
| 16.2 | 11.4 | 15200 | 2450 |  |  |  | CCOC(=O)c1c(-n2ccnc2)nc2ccc(Br)cc2c1N1CCNCC1 |  |  |  |
| 8.58 | 4.92 | 2820 | 160 |  |  |  | CCOC(=O)c1c(-n2ccnc2)nc2ccc(Br)cc2c1N1CCN(c2ccccc2NC(=O)c2cccc(Br)c2)CC1 |  |  |  |
| 8.22 | 5.02 | 2860 | 220 |  |  |  | CCOC(=O)c1c(-n2ccnc2)nc2ccc(Br)cc2c1N1CCN(c2ccccc2NS(=O)(=O)c2ccc(Br)cc2)CC1 |  |  |  |
|  |  |  |  |  |  | 490 | N#Cc1c(-c2ccc3ncc(C(N)=O)c(Nc4cccc(Br)c4)c3c2)csc1N |  |  |  |
| 4.22 | 1.88 | 820 | 62 |  | 152 |  | CCOC(=O)c1c(-n2ccnc2)nc2ccc(Br)cc2c1N1CCN(c2ccccc2NS(=O)(=O)c2ccc(F)cc2)CC1 |  |  | 86.5 |
| 15.1 | 10.8 | 11800 | 960 |  |  |  | CCOC(=O)c1c(-n2ccnc2)nc2ccc(Br)cc2c1N1CCN(c2ccccc2NS(=O)(=O)c2ccc(C(C)(C)C)cc2)CC1 |  |  |  |
| 7.01 | 4.82 | 2690 | 180 |  |  |  | CCOC(=O)c1c(-n2ccnc2)nc2ccc(Br)cc2c1N1CCN(c2ccccc2NC(=O)c2cc(F)ccc2Br)CC1 |  |  |  |

| Structure (SMILES) | IC50 (A549 [1]) [µM] | IC50 (A549 [2]) [µM] | IC50 (NCI-H1975) [nM] | IC50 (HCC827) [nM] | inhibition [5] | IC50 [6] [nM] | IC50 [8] [nM] | Activity (NSCLC [3]) [%] | Activity (NSCLC [4]) [%] | IC50 at 72 h [7] [µM] |
| --- | --- | --- | --- | --- | --- | --- | --- | --- | --- | --- |
| C=CC(=O)Nc1cc(Nc2nccc(-c3cn(C)c4ccccc34)n2)c(OC)cc1N(C)CCN(C)C [OSIMERTINIB] | 2.67 | […] | […] | […] |  |  |  |  |  |  |
